From US20020198219A1, “2-pyridinamine compositions and related methods” (priority 2000, published 2002)

System: differentiated P19 neurons
Assay: Drug screening using differentiated P19 cell assay (neuroprotection against glutamate/glycine)
Assay type: cell-based, murine
Details: for % neuroprotection (cell survival relative to control): screened at 1 micromolar, percentage of control cells surviving after 24 hours; for IC50: dose response 0.005-3 μM, 3 mM glutamate + 1 mM glycine, >1 = no maximum within highest dose (3 μM)
Experimental: Commercially available chemical libraries (BioFocus PLC, UK) were screened using the methods described herein. The stock concentration of the compounds was about 400 μM in DMSO. The concentration of compounds used in the primary screen was 1 μM. […] Columns 4-11 received compounds at the following final concentrations (μM): 3, 1.2, 0.48, 0.192, 0.077, 0.031, 0.012 and 0.005. Each row contained a different compound for confirmation. Only rows B-G received compounds, and rows A and H remained untreated. Data are expressed as % neuroprotection=((compound-glutamate average)/(U0126-glutamate average)×100).
Only the 2-pyridinamines are the subject of this invention, although limited data for 4-pyrimidinamines are presented as well. “% Inh” indicates the percentage of control cells surviving after 24 hours, and represents the neuroprotective effect of the compounds screened at 1 micromolar concentration. IC50 relate to data from dose response experiments. […] ND refers to compounds not tested in dose-response experiments. […]

Row | Compound | IC50 (Mus musculus, Neuron) [µM] | IC50 [µM] | % neuroprotection (cell survival relative to control) [%]
1 | COc1ccc(Nc2cccc(-c3ccccc3Oc3ccccc3)n2)cc1 [Cmpd 101] | – | – | 78
2 | COc1ccc(Nc2cccc(-c3ccc(Cl)cc3)n2)cc1 [Cmpd 103] | – | – | 75
3 | CCn1c2ccccc2c2cc(Nc3cccc(-c4cccc(N(C)C)c4)n3)ccc21 [Cmpd 104, 9H-carbazol-3-amine, N-[6-[3-(dimethylamino)phenyl]-2-pyridinyl]-9-ethyl-] | 0.09 | – | 89
4 | COc1cc(Nc2cccc(-c3ccc(N4CCOCC4)cc3)n2)cc(OC)c1OC [Cmpd 106] | – | 0.66 | 84
5 | COc1ncc(-c2cccc(Nc3cc(OC)c(OC)c(OC)c3)n2)c(OC)n1 [Cmpd 107] | – | – | 71
6 | COc1cc(Nc2cccc(-c3cc4ccccc4o3)n2)cc(OC)c1OC [Cmpd 110] | – | 0.14 | 91
7 | COc1cc(Nc2cccc(-c3cc(OC)c(OC)c(OC)c3)n2)cc(OC)c1OC [Cmpd 112] | – | 0.9 | 90
8 | COc1cc(Nc2cccc(-c3cccc(N(C)C)c3)n2)cc(OC)c1OC [Cmpd 113] | – | 0.54 | 91
9 | CCOc1cccc(-c2cccc(Nc3cc(OC)c(OC)c(OC)c3)n2)c1 [Cmpd 114, 2-pyridinamine, 6-(3-ethoxyphenyl)-N-(3,4,5-trimethoxyphenyl)-] | 0.14 | – | 96
10 | COc1cc(Nc2cccc(-c3ccc(O)cc3)n2)cc(OC)c1OC [Cmpd 117] | – | – | 78
11 | COc1cc(Nc2cccc(-c3cccc(OC(F)(F)F)c3)n2)cc(OC)c1OC [Cmpd 118, 2-pyridinamine, 6-[3-(trifluoromethoxy)phenyl]-N-(3,4,5-trimethoxyphenyl)-] | 0.05 | – | 91
12 | COc1cc(Nc2cccc(-c3ccc4c(c3)OCO4)n2)cc(OC)c1OC [Cmpd 120, 2-pyridinamine, 6-(1,3-benzodioxol-5-yl)-N-(3,4,5-trimethoxyphenyl)-] | 0.05 | – | 97
13 | COc1ccc(-c2cccc(Nc3cc(OC)c(OC)c(OC)c3)n2)cc1OC [Cmpd 124, 2-pyridinamine, 6-(3,4-dimethoxyphenyl)-N-(3,4,5-trimethoxyphenyl)-] | 0.23 | – | 86
14 | CCn1c2ccccc2c2cc(Nc3cccc(-c4ccco4)n3)ccc21 [Cmpd 132] | – | > 1 | 105
15 | CCn1c2ccccc2c2cc(Nc3cccc(-c4cncc(OC)c4)n3)ccc21 [Cmpd 134] | – | 1.59 | 92
16 | COc1cc(Nc2cccc(-c3cc(C(F)(F)F)cc(C(F)(F)F)c3)n2)cc(OC)c1OC [Cmpd 137] | – | 0.59 | 82
17 | COc1cc(Nc2cccc(-c3ccccc3Oc3ccccc3)n2)cc(OC)c1OC [Cmpd 138, 2-pyridinamine, 6-(2-phenoxyphenyl)-N-(3,4,5-trimethoxyphenyl)-] | 0.23 | – | 90
18 | CCn1c2ccccc2c2cc(Nc3cccc(-c4ccc5c(c4)OCO5)n3)ccc21 [Cmpd 139] | – | – | 72
19 | c1ccc(Oc2ccc(Nc3cccc(-c4ccc5c(c4)OCO5)n3)cc2)cc1 [Cmpd 140] | – | – | 79
20 | COc1cc(Nc2cccc(-c3ccc(Cl)cc3)n2)cc(OC)c1OC [Cmpd 141] | – | – | 76
21 | COc1cc(Nc2cccc(-c3ccc(F)c(Cl)c3)n2)cc(OC)c1OC [Cmpd 142] | – | – | 94
22 | COc1cc(Nc2cccc(/C=C/c3ccccc3)n2)cc(OC)c1OC [Cmpd 144, 2-pyridinamine, 6-[(E)-2-phenylethenyl]-N-(3,4,5-trimethoxyphenyl)-] | 0.03 | – | 110
23 | COc1ccc(Nc2cccc(C=Cc3ccccc3)n2)c(C)c1OC [Cmpd 145] | – | 0.28 | 96
24 | COc1cc(Nc2cccc(-c3ccc(Cl)c(Cl)c3)n2)cc(OC)c1OC [Cmpd 146] | – | 0.32 | 99

Continued, in another order:

Row | IC50 (Mus musculus, Neuron) [µM] | IC50 [µM] | Compound | % neuroprotection (cell survival relative to control) [%]
25 | 0.94 | – | COc1ccc(Nc2cccc(-c3ccc(CNC(=O)OC(C)(C)C)cc3)n2)cc1 [Cmpd 102] | 103
26 | – | 0.4 | COc1ccc(Nc2cccc(-c3cccc(N(C)C)c3)n2)cc1 [Cmpd 105] | 98
27 | – | 0.65 | COc1cc(Nc2cccc(-c3ccc(-c4ccccc4)cc3)n2)cc(OC)c1OC [Cmpd 121] | 96
28 | 0.007 | – | COc1cc(Nc2cccc(-c3ccccc3)n2)cc(OC)c1OC [Cmpd 122, 2-pyridinamine, 6-phenyl-N-(3,4,5-trimethoxyphenyl)-] | 84
29 | 0.65 | – | COc1ccc(Nc2cccc(-c3ccccc3)n2)cc1 [Cmpd 123] | 90
30 | 0.08 | – | COc1cc(Nc2cccc(-c3ccc(C)c(C)c3)n2)cc(OC)c1OC [Cmpd 126, 2-pyridinamine, 6-(3,4-dimethylphenyl)-N-(3,4,5-trimethoxyphenyl)-] | 90
31 | 0.19 | – | COc1cc(C)c(Nc2cccc(-c3ccc(C)c(C)c3)n2)cc1OC [Cmpd 127, 2-pyridinamine, N-(4,5-dimethoxy-2-methylphenyl)-6-(3,4-dimethylphenyl)] | 86
32 | – | 1.54 | COc1ccc(Nc2cccc(-c3ccc(C)c(C)c3)n2)cc1 [Cmpd 128] | 84
33 | – | 0.34 | CCn1c2ccccc2c2cc(Nc3cccc(-c4ccc(OC)c(OC)c4)n3)ccc21 [Cmpd 129] | 92
34 | – | 0.85 | COc1ccc(Nc2cccc(-c3ccc(OC)c(OC)c3)n2)cc1 [Cmpd 130] | 96
35 | 0.24 | – | COc1ccc(Nc2cccc(-c3ccco3)n2)cc1 [Cmpd 131] | 95
36 | 0.21 | – | COc1cc(Nc2cccc(-c3ccc4ccccc4c3)n2)cc(OC)c1OC [Cmpd 135, 2-pyridinamine, 6-(2-naphthyl)-N-(3,4,5-trimethoxyphenyl)-] | 86
37 | > 1 | – | COc1ccc(Nc2cccc(-c3ccc4ccccc4c3)n2)c(C)c1OC [Cmpd 136] | 86
